Results reported in BindingDB's records for doi:10.1016/s0960-894x(01)00701-6 (Pfizer, 2001).

Experiment: Ability to inhibit human tissue plasminogen activator stimulator

Cc1ccc(N=C(N)N)nc1 [N-(5-Methyl-pyridin-2-yl)-guanidine]
Ki: 245 µM
